What all share (assay type): in vivo
Experiment [1] has as its system Mustard beetles (PC) (Phaedon cochleariae Fab). The settings on record: Tables 10, 13, 14; NA = lack of detectable activity. Here is the method: A one microlitre drop of an acetone solution of the test compound was applied ventrally to adult mustard beetles using a micro drop applicator. The treated insects were maintained for 48 hours after which time kill was assessed. Two replicates each of 20 to 25 mustard beetles were used at each dose level and 5 dose levels were treated comparably. LD50 values were calculated as for houseflies.

The test system of experiment [2] is Mites (TU) (Tetranychus urticae), susceptible strain (GSS). The experiment is described as follows: Mite immersion test, susceptible strain GSS. The settings on record: 72 h, Tables 10, 13, 14, susceptible strain, NA = lack of detectable activity, read-out: TU LC50 (ppm/insect). The procedure: 25 adult female mites were immersed in 35 µl of a solution of the test compound in a 1:4 acetone-water mixture for 30 seconds. The treated insects were maintained at 21° ± 2°C and kill was assessed 72 hours after treatment. […] Three replicates of 25 mites each were used at each dose rate and 5 or 6 dose rates were used per compound under test. LC50 values were calculated in ppm of the solution of the test compound per insect. The test was carried out using a susceptible strain of mites (GSS) supplied by Schering, AG, Berlin.

Experiment [3] has as its system Houseflies (MD) (Musca domestica). The settings on record: Tables 10, 13, 14; NA = lack of detectable activity. The procedure:
Female flies were treated on the thorax with a one microlitre drop of test compound dissolved in acetone. Two replicates of 15 flies were used at each dose rate and 6 dose rates were used per compound under test. After treatment, the flies were maintained at a temperature of 20° ± 1°C and kill was assessed 24 and 48 hours after treatment. LD50 values were calculated in micrograms of test compound per fly (see Sawicki et al., Bulletin of the World Health Organisation, 35, 893 (1966) and Sawicki et al., Entomologia and Exp. Appli 10, 253, (1967).

Experiment [4] concerns Myzus persicae, susceptible strain (US1L). As to the kind of experiment: Aphid dip test, susceptible strain. Particulars: read-out: MP % kill 100 ppm. The procedure:
Activity against resistant (R) and susceptible (S) strains of aphid (Myzus persicae) was assessed using the following method.
Entrapment rings of fluon were painted halfway up the inside of 4 cm lengths of glass tubing (1.5 cm diameter), and squares of insect-proof gauze were attached to one end of each tube by elastic bands. Fifteen apterous adults were then gently transferred into the tubes using a sable-hair brush, and the tube sealed with a second gauze square.
Tubes containing aphids were dipped into insecticide solutions for 10 seconds, dried on blotting paper, and then inverted and tapped to cause treated aphids to fall to the unimmersed end of each tube. Handling mortality (usually zero or very slight) was scored after 1 hour, when aphids were transferred onto chinese cabbage leaf-discs (35 mm diameter) on an agar bed (25 mm in depth) in disposible plastic containers (30 mm high) and confined by applying a ring of fluon to the exposed lip of the container. Containers were store upright, without lids, in a constant environment facility maintained at 25°C under continuous room lighting. Mortality was assessed at 24, 48 and 72 hours. Two replicates of 15 aphids each were used at each dose rate and 5 or 6 dose rates were used per compound under test.
The test was carried out using a susceptible strain of aphids (US1L) collected in the field in East Anglia, UK and an extremely resistant strain of aphids (794Jz) (R3 esterase, sensitive AChE) collected from glasshouses in the UK.
The values given are % mortality corrected for control data. The control comprised the test solution without active ingredient.

For experiment [5], the system named is Whitefly (BT) (Bemisia tabaci), susceptible strain (SUD-S). The experiment is described as follows: Whitefly residual film vial test, susceptible strain SUD-S. The settings on record: 48 h, Tables 10, 13, 14, susceptible strain, NA = lack of detectable activity, read-out: BT LC50 (ppm/insect). Here is the method: Acetone solutions (0.100 ml) of the test compounds were placed in 10 ml glass vials and evaporated with rotation to deposit a film of the compound. Thirty adult whiteflies were placed inside the vial, then after 60 minutes, the treated insects were transferred onto untreated cotton leaf discs which were kept moist on a bed of agar gel. The temperature was maintained at 25°C and mortality assessed after 48 hours. Three replicates were used at each of 5 to 7 dose levels per compound.

Values after ≈ are worked out from the molar mass of the structure shown. Where only a bound is given, the exact number is not on record here.

On to `CCCCCCC1=C(O)C(=O)c2ccccc2C1=O` [-(CH2)5CH3, reference compound], for which the “PC LD50 (µg/insect)” value in experiment [1] is recorded as “c7 µg/insect”. In addition, the LC50 came to 170 µg/mL (≈ 658 µM) in experiment [2] and 9.4 µg/mL (≈ 36.4 µM) in experiment [5]. Moreover, the “MD LD50 (µg/insect)” value in experiment [3] is given as “c20 µg/insect”. For the same molecule, in experiment [4], the mortality at 100 ppm was 0%.

Regarding `O=C1C(O)=C(C2(C(F)(F)F)CCCCC2)C(=O)c2ccccc21` [Example 28, 2-hydroxy-3-(1'-trifluoromethylcyclohexyl)-naphthalene-1,4-dione], the figures for the LC50 in experiment [2] and in experiment [5] were 40 µg/mL (≈ 123 µM) and 24 µg/mL (≈ 74 µM), respectively. The “MD LD50 (µg/insect)” value in experiment [3] worked out at 14 µg/insect. In addition, in experiment [4], the mortality at 100 ppm was found to be 5%.

`CC1(C2=C(O)C(=O)c3ccccc3C2=O)C=CCCC1` (stereo not shown) [Example 31]: the “PC LD50 (µg/insect)” value in experiment [1] came to 5 µg/insect. Besides, the LC50 in experiment [2] was ~50 µg/mL (≈ 186 µM); in experiment [5], 4.7 µg/mL (≈ 17.5 µM). The “MD LD50 (µg/insect)” value in experiment [3] was found to be 6 µg/insect. Moreover, the mortality at 100 ppm in experiment [4] is 5%.

Turning to `CC1(CC2=C(O)C(=O)c3ccccc3C2=O)CCCCC1` [Example 32, 2-hydroxy-3-((1'methylcyclohexyl)-methyl)-naphthalene-1,4-dione], in experiment [1], the “PC LD50 (µg/insect)” value is given as <2 µg/insect. In addition, the LC50 in experiment [2] stood at 2.9 µg/mL (≈ 10.2 µM); in experiment [5] it was 3.6 µg/mL (≈ 12.7 µM). The “MD LD50 (µg/insect)” value in experiment [3] came out at 3.6 µg/insect. For the same molecule, in experiment [4], the mortality at 100 ppm was determined as 50%.

With `CC(C)(C)CCC1=C(O)C(=O)c2ccccc2C1=O` [Example 36, 2-(3,3-dimethylbutyl)-3-hydroxy-naphthalene-1,4-dione], the “PC LD50 (µg/insect)” value in experiment [1] is 1.3 µg/insect. Moreover, the figures for the LC50 in experiment [2] and in experiment [5] were 36 µg/mL (≈ 139 µM) and ~7 µg/mL (≈ 27.1 µM), respectively. Moreover, the mortality at 100 ppm in experiment [4] is ~24%.

Take `CC(C)(C)CCCC1=C(O)C(=O)c2ccccc2C1=O` [Example 37, 2-(4,4-dimethylpentyl)-3-hydroxy-naphthalene-1,4-dione]: the LC50 in experiment [2] came out at 2.9 µg/mL (≈ 10.6 µM); in experiment [5], 16 µg/mL (≈ 58.7 µM). The mortality at 100 ppm in experiment [4] was ~70%.

For the molecule `CC(C)(C)CCCCCC1=C(O)C(=O)c2ccccc2C1=O` [Example 39], the LC50 was found to be 9.6 µg/mL (≈ 32 µM) in experiment [2] and 21 µg/mL (≈ 69.9 µM) in experiment [5]. Moreover, the “MD LD50 (µg/insect)” value in experiment [3] is given as “c5 µg/insect”. In addition, the mortality at 100 ppm in experiment [4] is ~100%.

For `CC(C)(C)CCCCCCC1=C(O)C(=O)c2ccccc2C1=O` [Example 40], the LC50 was 5 µg/mL (≈ 15.9 µM) in experiment [2] and 13 µg/mL (≈ 41.3 µM) in experiment [5]. In experiment [3], the “MD LD50 (µg/insect)” value was “c5 µg/insect”. Also, the mortality at 100 ppm in experiment [4] was ~100%.

On to `CC(C)(C)C=CCCCC1=C(O)C(=O)c2ccccc2C1=O` [Example 43, 2-(6,6-dimethylhep-4-enyl)-3-hydroxy-naphthalene-1,4-dione], for which the values for the LC50 in experiment [2] and in experiment [5] were 11.5 µg/mL (≈ 38.5 µM) and ~60 µg/mL (≈ 201 µM), respectively. In addition, in experiment [4], the mortality at 100 ppm is ~100%.

Regarding `CC(C)(C)C=CCCCCC1=C(O)C(=O)c2ccccc2C1=O` [Example 44, 2-(7,7-dimethyloct-5-enyl)-3-hydroxy-naphthalene-1,4-dione], the LC50 in experiment [2] is 4.3 µg/mL (≈ 13.8 µM); in experiment [5] it was ~100 µg/mL (≈ 320 µM). For the same molecule, the “MD LD50 (µg/insect)” value in experiment [3] was “c10 µg/insect”. The mortality at 100 ppm in experiment [4] was ~100%.

Take `CC(=O)OC1=C(C(C)(C)C)C(=O)c2ccccc2C1=O` [Example 46]: the “PC LD50 (µg/insect)” value in experiment [1] is reported as “c15 µg/insect”. The LC50 in experiment [2] is ~500 µg/mL (≈ 1840 µM). The “MD LD50 (µg/insect)” value in experiment [3] was found to be 2.3 µg/insect. Moreover, the mortality at 100 ppm in experiment [4] is ~60%.

On to `CC(=O)OC1=C(CCCCCCC=CCC(C)(C)C)C(=O)c2ccccc2C1=O` [Example 49, 2-ethanoyoxy-3-(10,10-dimethylundecan-7-enyl)-naphthalene-1,4-dione], for which the “PC LD50 (µg/insect)” value in experiment [1] is “c10 µg/insect”. In experiment [2], the LC50 is 2.3 µg/mL (≈ 5.8 µM). For the same molecule, the “MD LD50 (µg/insect)” value in experiment [3] is “c18 µg/insect”. In addition, the mortality at 100 ppm in experiment [4] is ~15%.

The values are drawn from patent publication EP0802730B1, “PESTICIDAL COMPOUNDS” (BTG INTERNATIONAL LIMITED, priority 1995, dated 1996).
